# Measured values reported in patent publication US6350476B1, “Herbal chinese joint complex” (Shanxi Zhengzhon Pharmaceutical Co., Ltd., priority 2000, dated 2002).
# What was measured:
# [1] = as little as; cited from earlier work
# [2] = tested on: writhing caused by injection of 0.5% acetic acid; assay: Animal Study 8: writhing reaction caused by injection of 0.5% acetic acid; type: in vivo; details: mice, 0.2 g/kg gastrogavage
# Procedure: (§1) The compositions used in these experiments were prepared by the Pharmaceutical Preparation Room of Taiyuan Rheumatoid Arthritis Hospital using the procedures outlined above. Distilled water was added to prepare a suspension of the density required for the tests.
# (§2) Aspirin (99.6%) was manufactured by Nanjing Pharmacy. A 10% of gum acacia solution was added to prepare a suspension of the density required for the test.
# (§3) Distilled water was used for the control groups.
# This test measures the analgesic action of the composition disclosed in U.S. Pat. No. 5,908,628 on writhing caused by injection of 0.5% acetic acid according to the procedure established by Chen Qi. Methodology of Chinese Herbs Pharmacologic Research, The People's Public Health Publishing House, 378 (1993).
# The mice are randomly divided into 4 groups, each of which consists of 10 male and 10 female mice, with the total weight of each group being 20.9±1.1 g. […] Pat. No. […] One hour after the gastrogavage, a solution of (I.P.) 0.5% acetic acid (0.2 ml/20 g) was injected into the mice. The number of writhing reactions was counted during the 30 minutes immediately following the injection.
# [3] = tested on: carrageenin-induced edematous footpad in mice; assay: Animal Study 3: carrageenin-induced edematous footpad; type: in vivo; details: 0.15 g/kg gastrogavage once a day for 8 days
# Procedure: as §1, §2, §3
# This test was conducted according to the procedure established by Xu-Shu-Yun, Methodology of the Pharmacologic Experiments, The People's Public Health Publishing House, 717 (1991). Male mice were randomly assigned to one of four groups of ten mice each, each group weighing 22.5±2.1 g. Each group of mice was fed either water (control), aspirin (0.15 g/kg of body weight), or the composition disclosed in U.S. Pat. No. 5,908,628 (either 1.5 g or 3.0 g/kg of body weight) by means of gastrogavage, once a day for 8 days. On the eighth day, 1 hour after the gastrogavage, 0.1 ml of a 1.0% carrageenin solution was hypodermically injected into the right ankle joint. Using a volumometer, the volumes of the paw and ankle joints were measured 0.5, 1, 2, 3 and 4 hours after inflammation and the values were used to calculate a swelling value.
# [4] = tested on: inflammation of primary arthritis caused by injection of Freund's complete adjuvant (rat hind paw); assay: Animal Study 1: primary arthritis caused by Freund's complete adjuvant, treatment before injection; type: in vivo; details: rats, 0.15 g/kg gastrogavage once a day for 3 days
# Procedure: as §1, §2, §3
# Male rats were randomly divided into four groups of ten rats each, with the total weight of each group being 172.5±8.0 g. The perimeters of the rat hind paws were measured. Each group of rats was fed either water (control), aspirin (0.15 g/kg of body weight), or the composition disclosed in U.S. Pat. No. 5,908,628 (either 1.5 g or 3.0 g/kg of body weight) by means of gastrogavage, once a day for 3 days. On the third day, 1 hour after the gastrogavage, 0.1 ml of Freund's complete adjuvant was intradermally injected into each rat's right hind paw to induce inflammation. The perimeters of the left and right hind paws were measured 2, 4, 6, 24, 48 and 72 hours after inflammation.
# [5] = tested on: increased capillary permeability induced by I.P. 0.7 acetic acid in mice; assay: Animal Study 5: capillary permeability induced by glacial acetic acid; type: in vivo; details: 0.15 g/kg gastrogavage, 20 minutes after injection
# Procedure: as §1, §2, §3
# This test was conducted according to the procedure established by Chen Qi, The People's Public Health House, 303 (1993). Mice were randomly assigned to one of 4 groups, each group having a total weight of 21.8±1.9 g and consisting of 5 male and 5 female mice each. Each group of mice was fed either water (control), aspirin (0.15 g/kg of body weight), or the composition disclosed in U.S. Pat. No. 5,908,628 (either 1.5 g or 3.0 g/kg of body weight) by means of gastrogavage. One hour after the gastrogavage, a solution consisting of 0.5% Evans blue and (I.P.) 0.7% glacial acetic acid 0.1 m/10 g (body weight) was hypodermically injected into the mice. I.P. densitometry values were collected 20 minutes after the injection.
# [6] = tested on: fever caused by yeast injection; assay: Animal Study 7: anti-pyretic action on pyrexial rat caused by injection of fresh yeast; type: in vivo; details: rats, 0.15 g/kg gastrogavage
# Procedure: as §1, §2, §3
# This test was conducted according to the procedure established by Chen Qi, The People's Public Health House, 271 (1993).
# The rats were randomly divided into 4 groups, each group weighing 210.0±10.9 g and consisting of 5 male and 5 female rats each. Rats were maintained in the test environmental conditions for 3 days during which their anal temperatures were recorded twice daily. On the fourth day the anal temperature was measured every half hour. Next, a 15% solution of fresh yeast suspension (2 ml/100 g) was injected into the back of each rat. Anal temperature was measured 4 hours later. The rats whose temperatures rose above 1° C. were divided into 4 groups, each group consisting of 10 rats. Each group of rats was fed either water (control), aspirin (0.15 g/kg of body weight), or the composition disclosed in U.S. Pat. No. 5,908,628 (either 1.5 g or 3.0 g/kg of body weight) by means of gastrogavage. Anal temperatures were determined 1, 2, 3 and 4 hours after the gastrogavage.
# [7] = tested on: inflammation of primary arthritis caused by injection of Freund's complete adjuvant (rat hind paw); assay: Animal Study 2: primary arthritis caused by Freund's complete adjuvant, treatment one week after injection; type: in vivo; details: rats
# Procedure: as §1, §2, §3
# Male rats were randomly divided into four groups of ten rats each, with the total weight of each group being 172.5±8.0 g. The perimeters of the left and right rat hind paws were measured. 0.1 ml of Freund's complete adjuvant was intradermally injected into each rat's right hind paw to induce inflammation. One week after injection of Freund's complete adjuvant, each group of rats was fed either water (control), aspirin (0.15 g/kg of body weight), or the composition disclosed in U.S. Pat. No. 5,908,628 (either 1.5 g or 3.0 g/kg of body weight) by means of gastrogavage. The hind paws were observed and measured 1, 4 and 7 days after receiving treatments of either water, aspirin or the composition disclosed in U.S. Pat. No. 5,908,628. Results of the treatments were determined by measuring the degree of swelling of the injected versus non-injected hind paws, changes in body weight, the number of tubercles, and an overall visual score of the difference between the injected and non-injected paws. The visual score included observations on erythema of the ears and the swelling of the hind paws, ankle joints, and paw joints.
# [8] = tested on: hyperplasia of connective tissues (granulomatosis); assay: Animal Study 6: granulomatosis induced by Cotton Pallet Method; type: in vivo; details: rats; 0.1 g/kg gastrogavage once daily for 8 days
# Procedure: as §1, §2, §3
# This test was conducted according to the procedure established by the Medication Dept. of the Public Health Ministry (Collection of Guiding Principles on Western Medicine's Pre-Clinical Research, 271 (1993)). Rats were randomly assigned to one of 4 groups, each group consisting of 8 rats with a total weight 157.8±9.0 g. The rats in each group were anesthetized, tiny incisions were cut on the left and right groins, and 10 mg of sterilized cotton was placed inside each cut. […] On the day following the last gastrogavage, the cotton and any granuloma deposits thereon were removed from the incisions, dried at a temperature of 60° C. for 12 hours, after which they were individually weighed. The weight of the granuloma deposits was calculated by subtracting […] (i.e., 10 mg). […] The Inhibitory Ratio is calculated as follows: […]
structure (smiles),measurement,setting,value
COc1cc2c(c(OC)c1OC)-c1ccc(OC)c(=O)cc1[C@@H](NC(C)=O)CC2 [colchicine],smallest amount found to be fatal,[1],7 mg
"CC(=O)Oc1ccccc1C(=O)O [Aspirin, acetylsalicylic acid]",Analgesic Rate (%),[2],63.31%
same,Writhing Quantity,[2]; 30 minutes following acetic acid injection,24.4 ± 10.0
same,"Degree of swelling of Hind Paw, 0.5 hr after injection",[3]; 0.5 hr,0.08 ± 0.03 mL
same,"Degree of swelling of Hind Paw, 1 hr after injection",[3]; 1 hr,0.12 ± 0.03 mL
same,"Degree of swelling of Hind Paw, 2 hr after injection",[3]; 2 hr,0.03 ± 0.02 mL
same,"Degree of swelling of Hind Paw, 3 hr after injection",[3]; 3 hr,0.01 ± 0.01 mL
same,"Degree of swelling of Hind Paw, 4 hr after injection",[3]; 4 hr,0.01 ± 0.0 mL
same,"Swelling Measurement, 2 h",[4]; 2 h after inflammation,2.40 ± 1.08 mm
same,"Swelling Measurement, 4 h",[4]; 4 h after inflammation,4.40 ± 1.57 mm
same,"Swelling Measurement, 6 h",[4]; 6 h after inflammation,5.30 ± 1.34 mm
same,"Swelling Measurement, 24 h",[4]; 24 h after inflammation,3.20 ± 0.92 mm
same,"Swelling Measurement, 48 h",[4]; 48 h after inflammation,5.01 ± 1.92 mm
same,"Swelling Measurement, 72 h",[4]; 72 h after inflammation,5.80 ± 1.75 mm
same,Evans blue (densitometry),[5],0.231 ± 0.07
same,"Changes in Body Temperature after injection with yeast, 1 hr",[6]; 1 hr after the gastrogavage,37.9 ± 0.9 °C
same,"Changes in Body Temperature after injection with yeast, 2 hr",[6]; 2 hr after the gastrogavage,37.6 ± 0.9 °C
same,"Changes in Body Temperature after injection with yeast, 3 hr",[6]; 3 hr after the gastrogavage,37.8 ± 1.0 °C
same,"Changes in Body Temperature after injection with yeast, 4 hr",[6]; 4 hr after the gastrogavage,38.3 ± 0.7 °C
same,No. of Tubercles,[7]; 0.15 g/kg,1
same,Visual Score,[7]; 0.15 g/kg,1
same,Swelling,[7]; 0.15 g/kg gastrogavage one week after adjuvant injection,0.0 ± 0.57 mm
same,Dry Weight of the granuloma,[8],10.1 ± 1.6 mg/100 g
same,Inhibitory rate %,[8],17.89%
